Experimental data from PubChem BioAssay (NCI).
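Method: 48-hour compound exposure of cells in 96-well plates, five concentrations, linear interpolation of endpoints. Abbreviation: GI50, concentration required for 50% inhibition of growth. TGI denotes the concentration required for complete inhibition of growth.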

How the values were obtained:
Experiment in all cases: NCI anticancer screen, dose series, 48 h
786-0 renal = system: 786-0 renal
A498 renal = system: A498 renal
A549 NSCLC = system: A549 NSCLC
ACHN renal = system: ACHN renal
BT-549 breast = system: BT-549 breast
CAKI-1 renal = system: CAKI-1 renal
CCRF-CEM leukemia = system: CCRF-CEM leukemia
COLO 205 colon = system: COLO 205 colon
DU-145 prostate = system: DU-145 prostate
EKVX NSCLC = system: EKVX NSCLC
HCC-2998 colon = system: HCC-2998 colon
HCT-116 colon = system: HCT-116 colon
HCT-15 colon = system: HCT-15 colon
HL-60(TB) leukemia = system: HL-60(TB) leukemia
HOP-62 NSCLC = system: HOP-62 NSCLC
HOP-92 NSCLC = system: HOP-92 NSCLC
HS 578T breast = system: HS 578T breast
HT29 colon = system: HT29 colon
IGROV1 ovarian = system: IGROV1 ovarian
K-562 leukemia = system: K-562 leukemia
KM12 colon = system: KM12 colon
LOX IMVI melanoma = system: LOX IMVI melanoma
M14 melanoma = system: M14 melanoma
MALME-3M melanoma = system: MALME-3M melanoma
MCF7 breast = system: MCF7 breast
MDA-MB-231 breast = system: MDA-MB-231 breast
MDA-MB-435 = system: MDA-MB-435
MOLT-4 leukemia = system: MOLT-4 leukemia
NCI-H226 lung = system: NCI-H226 lung

**Q.** How did the GI50 (786-0 renal) turn out when CCCCCCCC(=O)SCC/C=C/[C@@H]1CC(=O)NCc2cccc(n2)CN(Cc2ccc(Cl)cc2)CC(=O)N[C@@H](C(C)C)C(=O)O1 was run?
**A.** 22 µM

**Q.** And the TGI (786-0 renal)?
**A.** > 100 µM

**Q.** And the GI50 (A498 renal)?
**A.** 8.67 µM

**Q.** And the TGI (A498 renal)?
**A.** 22.8 µM

**Q.** And the GI50 (A549 NSCLC)?
**A.** 12.1 µM

**Q.** What about the TGI (A549 NSCLC) of the same compound?
**A.** 97.7 µM

**Q.** What about the GI50 (ACHN renal) of the same compound?
**A.** 6.44 µM

**Q.** And the TGI (ACHN renal)?
**A.** 49.8 µM

**Q.** And the GI50 (BT-549 breast)?
**A.** 37.1 µM

**Q.** And the TGI (BT-549 breast)?
**A.** > 100 µM

**Q.** And the GI50 (CAKI-1 renal)?
**A.** 28 µM

**Q.** What about the TGI (CAKI-1 renal) of the same compound?
**A.** > 100 µM

**Q.** What about the GI50 (CCRF-CEM leukemia) of the same compound?
**A.** 4.56 µM

**Q.** What about the TGI (CCRF-CEM leukemia) of the same compound?
**A.** > 100 µM

**Q.** And the GI50 (COLO 205 colon)?
**A.** 17.6 µM

**Q.** And the TGI (COLO 205 colon)?
**A.** 42.9 µM

**Q.** And the GI50 (DU-145 prostate)?
**A.** 10.9 µM

**Q.** And the TGI (DU-145 prostate)?
**A.** > 100 µM

**Q.** And the GI50 (EKVX NSCLC)?
**A.** 17.8 µM

**Q.** What about the TGI (EKVX NSCLC) of the same compound?
**A.** > 100 µM

**Q.** And the GI50 (HCC-2998 colon)?
**A.** 13.8 µM

**Q.** And the TGI (HCC-2998 colon)?
**A.** 43.7 µM

**Q.** And the GI50 (HCT-116 colon)?
**A.** 4.23 µM

**Q.** And the TGI (HCT-116 colon)?
**A.** 15.6 µM

**Q.** What about the GI50 (HCT-15 colon) of the same compound?
**A.** 20.1 µM

**Q.** What about the TGI (HCT-15 colon) of the same compound?
**A.** > 100 µM

**Q.** And the GI50 (HL-60(TB) leukemia)?
**A.** 23.1 µM

**Q.** And the TGI (HL-60(TB) leukemia)?
**A.** > 100 µM

**Q.** And the GI50 (HOP-62 NSCLC)?
**A.** 5.4 µM

**Q.** And the TGI (HOP-62 NSCLC)?
**A.** 44.4 µM

**Q.** And the GI50 (HOP-92 NSCLC)?
**A.** 8.76 µM

**Q.** What about the TGI (HOP-92 NSCLC) of the same compound?
**A.** 41.8 µM

**Q.** And the GI50 (HS 578T breast)?
**A.** 6.05 µM

**Q.** And the TGI (HS 578T breast)?
**A.** 56.1 µM

**Q.** What about the GI50 (HT29 colon) of the same compound?
**A.** 4.3 µM

**Q.** What about the TGI (HT29 colon) of the same compound?
**A.** > 100 µM

**Q.** And the GI50 (IGROV1 ovarian)?
**A.** 7.02 µM

**Q.** What about the TGI (IGROV1 ovarian) of the same compound?
**A.** > 100 µM

**Q.** And the GI50 (K-562 leukemia)?
**A.** 11 µM

**Q.** What about the TGI (K-562 leukemia) of the same compound?
**A.** > 100 µM

**Q.** And the GI50 (KM12 colon)?
**A.** 9.4 µM

**Q.** What about the TGI (KM12 colon) of the same compound?
**A.** 65.1 µM

**Q.** What about the GI50 (LOX IMVI melanoma) of the same compound?
**A.** 5.33 µM

**Q.** What about the TGI (LOX IMVI melanoma) of the same compound?
**A.** 19.6 µM

**Q.** What about the GI50 (M14 melanoma) of the same compound?
**A.** 9.1 µM

**Q.** What about the TGI (M14 melanoma) of the same compound?
**A.** > 100 µM

**Q.** And the GI50 (MALME-3M melanoma)?
**A.** 3.12 µM

**Q.** What about the TGI (MALME-3M melanoma) of the same compound?
**A.** > 100 µM

**Q.** What about the GI50 (MCF7 breast) of the same compound?
**A.** 12.1 µM

**Q.** What about the TGI (MCF7 breast) of the same compound?
**A.** > 100 µM

**Q.** And the GI50 (MDA-MB-231 breast)?
**A.** 11.7 µM

**Q.** What about the TGI (MDA-MB-231 breast) of the same compound?
**A.** 68.8 µM

**Q.** And the GI50 (MDA-MB-435)?
**A.** 6.06 µM

**Q.** What about the TGI (MDA-MB-435) of the same compound?
**A.** > 100 µM

**Q.** And the GI50 (MOLT-4 leukemia)?
**A.** 3.21 µM

**Q.** And the TGI (MOLT-4 leukemia)?
**A.** > 100 µM

**Q.** What about the GI50 (NCI-H226 lung) of the same compound?
**A.** 22 µM

**Q.** And the TGI (NCI-H226 lung)?
**A.** > 100 µM
